According to publication PMC5827777, “Synthesis and biological evaluation of RGD and isoDGR peptidomimetic-α-amanitin conjugates for tumor-targeting” (Beilstein Journal of Organic Chemistry, 2018):

Experiments:
Assay in all cases: cells
Format in all cases: cell-based
[1] = system: U87 cells (human glioblastoma, αVβ3+)
Method: (§1) The cell lines were treated with different concentrations of the free drug α-amanitin and conjugates 7–11 for 96 hours. […]
(§2) described recently.[S1] The SNP profiles matched known profiles or were unique. The purity of the cell lines was validated using the Multiplex cell Contamination Test by Multiplexion (Heidelberg, Germany) as described recently.[S2] No mycoplasma, SMRV or interspecies contamination was detected. U87-MG, MDA-MB 468 and A549 cells were cultivated continuously for not more than 3 months in MEM Eagle´s, DMEM or Ham´s F12 medium, respectively, supplemented with 10% heat inactivated fetus calf serum, L-glutamine and antibiotics. Cell lines were maintained at 37 °C and 5% CO2 in a high humidity atmosphere.
(§3) Cell therapy and viability assay
(§4) Cell viability assays were performed in U87-MG, A549 and MDA-MB 468 cell lines according to the following procedure: 2 × 10^3 cells/well were plated in 96-well black clear bottom plates (Perkin Elmer) and incubated overnight. 1:5 serial dilutions of compounds 7–11 were prepared in cell culture media. The compounds were added to the cell culture and incubated for additional 96 h. Starting concentration of compounds 7–11 in the wells was 1 × 10−5 M and cell viability was determined with the CellTiterGlo 2.0 assay (Promega) in accordance to manufacturer’s instructions. The cell viability was calculated in relation to the non-treated controls for each cell line. All samples were measured in triplicate. Data analysis was carried out using software GraphPad Prism (GraphPad Software Inc., La Jolla, CA, USA).
Competition experiment of compounds 10 and 11
The competition experiment s were performed in U87-MG and MDA-MB 468 cell lines according to the following procedure: 2 × 10^3 cells/well were plated in 96-well black clear bottom plates (Perkin Elmer) and incubated overnight. A solution containing 1 × 10−4 M of the conjugates 10 or 11 and 5 × 10−3 M of cilengitide (50-fold excess of ligand in comparison to the conjugate) was prepared in the growth medium and 1:5 serial dilutions were prepared in cell culture media. The compounds were added to cell culture and incubated for 96 h. The starting concentration of the compounds in the wells was 0.01 mM whereas that of cilengitide was 0.5 mM. The cell viability was determined with the CellTiterGlo 2.0 assay (Promega) in accordance to manufacturer’s instructions and the viability was calculated in relation to the non-treated controls for each cell line. All samples were measured in triplicate. Data analysis was carried out using software GraphPad Prism (GraphPad Software Inc., La Jolla, CA, USA).
(§5) [S1] F. Castro, W. G. Dirks, S. Fähnrich, A. Hotz-Wagenblatt, M. Pawlita, M. Schmitt, Int. J. Cancer […]
(§6) [S2] M. Schmitt, M. Pawlita, Nucleic Acids Res. 2009, 37, e119.

[2] = system: MDA-MB-468 cells (breast adenocarcinoma, αVβ3−); conditions: Homo sapiens, MDA-MB-468; 96 hours treatment; triplicate; read-out: IC50 MDA-MB-468 (αVβ3−), inhibition of cell viability
Method: as §1, §2, §3
as §4, with “USA). […]” for “USA).”
as §5, §6

[3] = system: A549 cells (human lung carcinoma, αVβ3−)
Method: as §1, §2, §3
as §4, with “USA). […]” for “USA).”

| SMILES | IC50 ([1]; Homo sapiens, U-87 MG, 96 hours treatment, triplicate, read-out: IC50 U87 (αVβ3+), inhibition of cell viability) [µM] | IC50 [2] [µM] | IC50 ([3]; Homo sapiens, A549, 96 hours treatment, triplicate, read-out: IC50 A549 (αVβ3−), inhibition of cell viability) [µM] | more potent than α-amanitin ([1]; in U87 and MDA-MB-468 cell lines, Table 3 entry 1 vs entry 6) | less potent than the free drug (α-amanitin) ([3]; A549 cell line) [times] |
| --- | --- | --- | --- | --- | --- |
| CC[C@H](C)[C@@H]1NC(=O)CNC(=O)[C@@H]2Cc3c([nH]c4cc(O)ccc34)[S@+]([O-])C[C@H](NC(=O)CNC1=O)C(=O)N[C@@H](CC(N)=O)C(=O)N1C[C@H](O)C[C@H]1C(=O)N[C@@H]([C@@H](C)[C@@H](O)CO)C(=O)N2 [α-amanitin] | 0.347 ± 0.133 | 0.185 ± 0.0496 | 0.518 ± 0.305 | – | – |
| CC[C@H](C)[C@@H]1NC(=O)CNC(=O)[C@@H]2Cc3c([nH]c4cc(OCc5ccc(NC(=O)[C@H](C)NC(=O)[C@@H](NC(=O)CCc6cn(CCOCCOCCOCCOCC(=O)NCc7ccc(CN8C(=O)[C@H]9CC(=O)N[C@H](C(=O)O)CC(=O)NCC(=O)N[C@@H](CCCNC(=N)N)C(=O)NC[C@H]8C(=O)N9)cc7)nn6)C(C)C)cc5)ccc34)[S+]([O-])C[C@H](NC(=O)CNC1=O)C(=O)N[C@@H](CC(N)=O)C(=O)N1C[C@H](O)C[C@H]1C(=O)N[C@@H]([C@@H](C)[C@@H](O)CO)C(=O)N2 (stereo partly drawn) [Compound 11, cyclo[DKP-isoDGR]-PEG-4-Val-Ala-α-amanitin] | – | – | – | 2.1–2.8 times | 1.4 |
